For 14 molecules, IC50 results are on record in patent US10562912B2 (C&C Research Laboratories, priority 2013, dated 2020).

Holding throughout (assay type): cell-based
The test system of one test is HEL92.1.7. As to the kind of experiment: Cell growth inhibition assay, blood cancer cell line HEL92.1.7. The conditions noted are these: Homo sapiens, HEL 92.1.7, HEL92.1.7 blood cancer cell line. The method, then: The inhibitory effects of the compounds of the present invention against the growth of cancer cells were evaluated as shown below. The cancer cell lines including stomach cancer cell line (AGS), breast cancer cell lines (MDA-MB-231, MDA-MB-468, and BT-549), prostate cancer cell lines (LNCaP and DU-145), colon cancer cell line (HCT116), ovarian cancer cell line (SW626), liver cancer cell line (Hep3B), kidney cancer cell line (ACHN), lung cancer cell line (NCI-H23) and blood cancer cell lines (HEL92.1.7 and U266) were cultured under the protocol provided by each supplier. A medium supplemented with 10 ng/mL of IL-6 was used for LNCaP, a prostate cancer cell line, when treated with a drug. Each type of cells to be used in experiments were sub-cultured in a 96-well plate by counting the exact number of cells using Tali™ Image-based Cytometer (Life Technologies). In a 96-well plate, AGS, HCT116, and DU-145 were employed with 3,000 cells/well; NCI-H23, SW626, Hep3B, ACHN, BT-549, MDA-MB-231, HEL92.1.7, and U266 were employed with 5,000 cells/well; and LNCaP and MDA-MB-468 were employed with 10,000 cells/well. The cells were treated with the compounds listed in Examples which were diluted in various concentrations. Upon completion of the compounds treatment, AGS, HCT116, SW626, DU145, NCI-H23, Hep3B, ACHN, BT-549, LNCaP, HEL92.1.7, and U266 cells were cultured at 37° C. under 5% CO2 for from 72 to 96 hours, and MDA-MB-231 and MDA-MB-468 cells were cultured at 37° C. in air for from 72 to 96 hours. Subsequently, the cells were observed under microscope and drug precipitation and particular findings were investigated and recorded. And then, the 96-well plate was placed at room temperature for 30 minutes, added with 20 μL/well of CellTiter-Glo solution (Cat No. G7573, Promega) and shaken for 10 minutes, followed by being subjected to the measurement using PHERAstar™ microplate reader (BMG LABTECH) according to the supplier's general luminometer protocol. Wells where only culture liquid added without cell plating were used as a negative control, whereas wells where culture liquid containing 0.1% DMSO instead of the compounds listed in Examples were used as a positive control.

A further test has as its target T1, STAT3 (Homo sapiens, UniProt P40763).
T1 construct: plasmid pSTAT3-TA-luc), which contains a stably operating STAT3 promoter; endogenous in cells
As to the kind of experiment: STAT3 reporter gene assay (luciferase), LNCaP stable cell line (pSTAT3-TA-luc), IL-6 stimulation. The procedure, abridged: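 Cytotoxicity was run on a duplicate plate with CellTiter-Glo, while the other plate gave luciferase read-outs from lysed LNCaP pSTAT3-TA-luc reporter cells. Cells were treated with graded compound concentrations plus IL-6 (10 ng/mL final) for 24–48 h in 3% DCC-FBS medium. Unstimulated and stimulated wells served as negative and positive controls.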
(In general: A reporter such as luciferase makes a cellular process visible.)

Another test concerns LNCaP. As to the kind of experiment: Cell growth inhibition assay, prostate cancer cell line LNCaP (medium with 10 ng/mL IL-6). The conditions noted are these: Homo sapiens, medium supplemented with 10 ng/mL of IL-6, 10,000 cells/well.
For the next test, the system named is DU-145. As to the kind of experiment: Cell growth inhibition assay, prostate cancer cell line DU-145. As to conditions: Homo sapiens, DU-145 prostate cancer cell line. The procedure, abridged:
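DU-145 and HCT116 cells were plated at 3,000 cells/well and SW626 at 5,000 cells/well, then treated with serially diluted compounds. After 72 to 96 hours at 37° C. under 5% CO2, viability was read by CellTiter-Glo luminescence against cell-free medium wells and 0.1% DMSO wells.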

Broadly, the IC50 is the concentration that gives 50% inhibition. A higher IC50 goes with a need for much substance.

T1 sequence (P40763 whole entry): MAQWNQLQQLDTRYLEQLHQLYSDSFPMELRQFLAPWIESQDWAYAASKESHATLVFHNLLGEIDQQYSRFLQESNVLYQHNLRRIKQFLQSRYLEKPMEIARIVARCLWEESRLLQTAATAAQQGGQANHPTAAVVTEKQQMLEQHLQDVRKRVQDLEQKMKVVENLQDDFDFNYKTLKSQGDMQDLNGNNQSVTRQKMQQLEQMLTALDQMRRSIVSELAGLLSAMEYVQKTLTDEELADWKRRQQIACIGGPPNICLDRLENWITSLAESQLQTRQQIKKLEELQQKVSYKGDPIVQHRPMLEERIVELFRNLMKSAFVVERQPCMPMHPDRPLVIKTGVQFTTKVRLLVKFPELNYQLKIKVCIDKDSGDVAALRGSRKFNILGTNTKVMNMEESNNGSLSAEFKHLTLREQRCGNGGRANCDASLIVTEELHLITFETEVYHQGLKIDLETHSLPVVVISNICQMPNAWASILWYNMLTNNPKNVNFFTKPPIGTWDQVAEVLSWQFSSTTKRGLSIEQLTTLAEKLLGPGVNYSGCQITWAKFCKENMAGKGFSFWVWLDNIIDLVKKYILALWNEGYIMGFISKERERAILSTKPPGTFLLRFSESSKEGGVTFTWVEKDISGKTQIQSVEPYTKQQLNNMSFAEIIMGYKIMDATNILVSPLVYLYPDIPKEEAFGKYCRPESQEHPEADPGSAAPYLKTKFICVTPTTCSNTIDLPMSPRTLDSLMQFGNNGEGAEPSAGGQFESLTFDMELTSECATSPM

With `CN(C)CCOc1cc(OC(F)(F)F)cc(C(C)(C)c2cc(Cl)cc(NC(=O)c3cc4cc(NS(C)(=O)=O)ccc4s3)c2)c1` [Example 94, N-(3-chloro-5-(2-(3-(2-(dimethylamino)ethoxy)-5-(trifluoromethoxy)phenyl)propan-2-yl)phenyl)-5-(methylsulfonamido)benzo[b]thiophene-2-carboxamide], the IC50 in the test on HEL92.1.7 was found to be 0.35 µM; on STAT3, 1.12 µM; in the test with LNCaP, 0.27 µM; with DU-145 it was 0.2 µM.

On to `CC(C)(C)OC(=O)N1CCC(Oc2cc(OC(F)(F)F)cc(C(C)(C)c3cc(Cl)cc(NC(=O)c4cc5cc(NS(C)(=O)=O)ccc5s4)c3)c2)CC1` [Example 95, tert-butyl 4-(3-(2-(3-chloro-5-(5-(methylsulfonamido)benzo[b]thiophene-2-carboxamido)phenyl)propan-2-yl)-5-(trifluoromethoxy)phenoxy)piperidine-1-carboxylate], for which the IC50 with HEL92.1.7 worked out at 0.69 µM; on STAT3, 0.11 µM; with LNCaP it was 0.015 µM; in the test with DU-145 it was 0.011 µM.

As for `CC(C)(c1cc(Cl)cc(NC(=O)c2cc3cc(NS(C)(=O)=O)ccc3s2)c1)c1cc(OC2CCNCC2)cc(OC(F)(F)F)c1` [Example 96, N-(3-chloro-5-(2-(3-(piperidin-4-yloxy)-5-(trifluoromethoxy)phenyl)propan-2-yl)phenyl)-5-(methylsulfonamido)benzo[b]thiophene-2-carboxamide], the IC50 in the test on HEL92.1.7 was above 1.1 µM; at STAT3, 3.4 µM; in the test on LNCaP, above 1.1 µM; in the test on DU-145 it was above 1.1 µM.

On to `CC(C)Oc1cc(OC(F)(F)F)cc(C(C)(C)c2cc(Cl)cc(NC(=O)c3cc4cc(NS(=O)(=O)N5CCOCC5)ccc4s3)c2)c1` [Example 103, N-(3-chloro-5-(2-(3-isopropoxy-5-(trifluoromethoxy)phenyl)propan-2-yl)phenyl)-5-(morpholine-4-sulfonamido)benzo[b]thiophene-2-carboxamide], for which the IC50 in the test with HEL92.1.7 was determined as 0.16 µM; against STAT3, 0.11 µM; with LNCaP, 0.035 µM; with DU-145 it was 0.045 µM.

On to `Cn1cc(Cc2cc(OC(F)(F)C(F)F)cc(C(C)(C)c3cc(Cl)cc(NC(=O)c4cc5cc(NS(C)(=O)=O)ccc5s4)c3)c2)cn1` [Example 138, N-(3-chloro-5-(2-(3-((1-methyl-1H-pyrazol-4-yl)methyl)-5-(1,1,2,2-tetrafluoroethoxy)phenyl)propan-2-yl)phenyl)-5-(methylsulfonamido) benzo[b]thiophene-2-carboxamide], for which the concentration for half-maximal inhibition (IC50) in the test with HEL92.1.7 is 0.26 µM; against STAT3, 0.02 µM; in the test with LNCaP, 0.054 µM; in the test on DU-145, 0.018 µM.

For the molecule `CN(C)S(=O)(=O)N1CCN(Cc2cc(OC(F)(F)C(F)F)cc(C(C)(C)c3cc(Br)cc(NC(=O)c4cc5cc(NS(C)(=O)=O)ccc5s4)c3)c2)CC1` [Example 139, N-(3-bromo-5-(2-(3-((4-(N,N-dimethylsulfamoyl)piperazin-1-yl)methyl)-5-(1,1,2,2-tetrafluoroethoxy)phenyl)propan-2-yl)phenyl)-5-(methylsulfonamido)benzo[b]thiophene-2-carboxamide], the IC50 in the test on HEL92.1.7 was determined as 0.69 µM; at STAT3, 0.11 µM; in the test on LNCaP it was 0.17 µM; in the test with DU-145, 0.073 µM.

As to `CC(C)(c1cc(F)cc(NC(=O)c2cc3cc(NS(C)(=O)=O)ccc3s2)c1)c1cc(CN2CCOCC2)cc(OC(F)(F)C(F)F)c1` [Example 140, N-(3-fluoro-5-(2-(3-(morpholinomethyl)-5-(1,1,2,2-tetrafluoroethoxy)phenyl)propan-2-yl)phenyl)-5-(methylsulfonamido)benzo[b]thiophene-2-carboxamide], the IC50 is 0.3 µM in the test with HEL92.1.7, 0.09 µM against STAT3, 0.13 µM in the test on LNCaP and 0.053 µM in the test with DU-145.

`CC(C)(c1cc(Br)cc(NC(=O)c2cc3cc(NS(C)(=O)=O)ccc3s2)c1)c1cc(CN2CCN(C3COC3)CC2)cc(OC(F)(F)C(F)F)c1` [Example 141, N-(3-bromo-5-(2-(3-((4-(oxetan-3-yl)piperazin-1-yl)methyl)-5-(1,1,2,2-tetrafluoroethoxy)phenyl)propan-2-yl)phenyl)-5-(methylsulfonamido)benzo[b]thiophene-2-carboxamide]: the IC50 in the test on HEL92.1.7 was 1.05 µM; at STAT3, 0.38 µM; with LNCaP it was 0.36 µM; in the test on DU-145 it was 0.14 µM.

Take `CC(C)Oc1cc(-c2ccnn2C)cc(C(C)(C)c2cc(Cl)cc(NC(=O)c3cc4cc(NS(C)(=O)=O)ccc4s3)c2)c1` [Example 142, N-(3-chloro-5-(2-(3-isopropoxy-5-(1-methyl-1H-pyrazol-5-yl)phenyl)propan-2-yl)phenyl)-5-(methylsulfonamido)benzo[b]thiophene-2-carboxamide]: the IC50 with HEL92.1.7 turned out to be 0.33 µM; at STAT3 it was 0.13 µM; in the test with LNCaP it was 0.33 µM; in the test with DU-145, 0.09 µM.

As to `CC(C)Oc1cc(-c2cnn(C)c2)cc(C(C)(C)c2cc(Cl)cc(NC(=O)c3cc4cc(NS(C)(=O)=O)ccc4s3)c2)c1` [Example 143, N-(3-chloro-5-(2-(3-isopropoxy-5-(1-methyl-1H-pyrazol-4-yl)phenyl)propan-2-yl)phenyl)-5-(methylsulfonamido)benzo[b]thiophene-2-carboxamide], the IC50 in the test with HEL92.1.7 was found to be 0.48 µM; on STAT3, 0.29 µM; in the test on LNCaP, 0.47 µM; in the test with DU-145, 0.18 µM.

With `CC(C)Oc1cc(N2CC[N+](C)([O-])CC2)cc(C(C)(C)c2cc(Cl)cc(NC(=O)c3cc4cc(NS(C)(=O)=O)ccc4s3)c2)c1` [Example 144], the IC50 is above 1.1 µM in the test on HEL92.1.7, 5.2 µM against STAT3, 2.6 µM in the test on LNCaP and 1 µM in the test on DU-145.

With `CC(C)Oc1cc(N2CCOCC2)cc(C(C)(C)c2cc(Cl)cc(NC(=O)c3cc4cc(NS(C)(=O)=O)ccc4s3)c2)c1` [Example 145, N-(3-chloro-5-(2-(3-isopropoxy-5-morpholinophenyl)propan-2-yl)phenyl)-5-(methylsulfonamido)benzo[b]thiophene-2-carboxamide], the IC50 with HEL92.1.7 is 0.16 µM; at STAT3, 0.067 µM; in the test with LNCaP, 0.04 µM; with DU-145 it was 0.06 µM.

With `CC(C)Oc1cc(N2CCCC2)cc(C(C)(C)c2cc(Cl)cc(NC(=O)c3cc4cc(NS(C)(=O)=O)ccc4s3)c2)c1` [Example 146, N-(3-chloro-5-(2-(3-isopropoxy-5-(pyrrolidin-1-yl)phenyl)propan-2-yl)phenyl)-5-(methylsulfonamido)benzo[b]thiophene-2-carboxamide], the IC50 came to 0.32 µM in the test with HEL92.1.7, 0.073 µM on STAT3, 0.022 µM with LNCaP and 0.019 µM in the test with DU-145.

Take `CC(C)Oc1cc(N2CCN(C)CC2)cc(C(C)(C)c2cc(Cl)cc(NC(=O)c3cc4cc(NS(C)(=O)=O)ccc4s3)c2)c1` [Example 147, N-(3-chloro-5-(2-(3-isopropoxy-5-(4-methylpiperazin-1-yl)phenyl)propan-2-yl)phenyl)-5-(methylsulfonamido)benzo[b]thiophene-2-carboxamide]: the IC50 was determined as 1.04 µM in the test with HEL92.1.7, 0.67 µM against STAT3, 0.8 µM with LNCaP and 0.47 µM in the test on DU-145.
